According to ChEMBL document CHEMBL1141939, “Structure-activity relationship studies on a series of cyclohexylpiperazines bearing a phanylacetamide as ligands of the human melanocortin-4 receptor” (Bioorg Med Chem Lett, 2005):

Key:
[1] = target: T1, Melanocortin receptor 4 (Homo sapiens, UniProt P32245); assay: biochemical; assay type: cell-based, HEK293
Description: Displacement of [125I]NDP-MSH from human MC4R expressed in HEK293 cells

[2] = target: T1, Melanocortin receptor 4; assay: cAMP stimulation in HEK293 cells transfected with human MC4R; assay type: functional, cell-based

T1 sequence (P32245 whole entry): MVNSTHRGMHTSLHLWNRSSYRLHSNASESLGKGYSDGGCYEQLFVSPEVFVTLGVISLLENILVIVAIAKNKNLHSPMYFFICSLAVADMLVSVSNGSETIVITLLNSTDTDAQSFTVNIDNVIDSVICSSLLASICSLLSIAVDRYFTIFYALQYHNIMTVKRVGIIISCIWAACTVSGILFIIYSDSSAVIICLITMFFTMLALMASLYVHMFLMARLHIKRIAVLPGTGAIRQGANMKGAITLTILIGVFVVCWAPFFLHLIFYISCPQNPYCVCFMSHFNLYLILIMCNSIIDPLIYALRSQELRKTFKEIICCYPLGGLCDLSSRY

Row | Structure (SMILES) | Ki [1] | EC50 [2] | Emax [2]
1 | O=C(Cc1ccccc1)NCC1(N2CCN(C(=O)[C@@H](Cc3ccc(Cl)cc3)NC(=O)c3cnc4ccccc4c3)CC2)CCCCC1 | 61 nM | – | –
2 | CCC(=O)N[C@H](Cc1ccc(Cl)cc1)C(=O)N1CCN(C2(CNC(=O)Cc3ccccc3)CCCCC2)CC1 | 160 nM | – | –
3 | CCCCC(=O)N[C@H](Cc1ccc(Cl)cc1)C(=O)N1CCN(C2(CNC(=O)Cc3ccccc3)CCCCC2)CC1 | 150 nM | – | –
4 | COCC(=O)N[C@H](Cc1ccc(Cl)cc1)C(=O)N1CCN(C2(CNC(=O)Cc3ccccc3)CCCCC2)CC1 | 170 nM | – | –
5 | O=C(Cc1ccccc1)NCC1(N2CCN(C(=O)[C@@H](Cc3ccc(Cl)cc3)NC(=O)C3CCCC3)CC2)CCCCC1 | 230 nM | – | –
6 | CN(C)CC(=O)N[C@H](Cc1ccc(Cl)cc1)C(=O)N1CCN(C2(CNC(=O)Cc3ccccc3)CCCCC2)CC1 | 100 nM | 300 nM | 63%
7 | CCCC(=O)N[C@H](Cc1ccc(Cl)cc1)C(=O)N1CCN(C2(CNC(=O)Cc3ccccc3)CCCCC2)CC1 | 210 nM | – | –
8 | CCC(CC)C(=O)N[C@H](Cc1ccc(Cl)cc1)C(=O)N1CCN(C2(CNC(=O)Cc3ccccc3)CCCCC2)CC1 | 1000 nM | – | –
9 | O=C(Cc1ccccc1)NCC1(N2CCN(C(=O)[C@@H](Cc3ccc(Cl)cc3)NC(=O)Cc3cccs3)CC2)CCCCC1 | 80 nM | – | –
10 | O=C(Cc1ccccc1)NCC1(N2CCN(C(=O)[C@@H](Cc3ccc(Cl)cc3)NC(=O)C3CCC3)CC2)CCCCC1 | 140 nM | – | –
11 | NC1(C(=O)N[C@H](Cc2ccc(Cl)cc2)C(=O)N2CCN(C3(CNC(=O)Cc4ccccc4)CCCCC3)CC2)CCc2ccccc2C1 (stereo partly specified) | 82 nM | 160 nM | 87%
12 | O=C(Cc1ccccc1)NCC1(N2CCN(C(=O)[C@@H](Cc3ccc(Cl)cc3)NC(=O)c3cccnc3)CC2)CCCCC1 | 60 nM | – | –
13 | O=C(Cc1ccccc1)NCC1(N2CCN(C(=O)[C@@H](Cc3ccc(Cl)cc3)NC(=O)C3CC3)CC2)CCCCC1 | 130 nM | – | –
14 | CC(C)CC(=O)N[C@H](Cc1ccc(Cl)cc1)C(=O)N1CCN(C2(CNC(=O)Cc3ccccc3)CCCCC2)CC1 | 270 nM | – | –
15 | O=C(Cc1ccccc1)NCC1(N2CCN(C(=O)[C@@H](Cc3ccc(Cl)cc3)NC(=O)c3ccc(F)cc3)CC2)CCCCC1 | 97 nM | – | –
16 | O=C(Cc1ccccc1)NCC1(N2CCN(C(=O)[C@@H](Cc3ccc(Cl)cc3)NC(=O)CC3Cc4ccccc4CN3)CC2)CCCCC1 (stereo partly specified) | 16 nM | 37 nM | 96%
17 | O=C(Cc1ccccc1)NCC1(N2CCN(C(=O)[C@@H](Cc3ccc(Cl)cc3)NC(=O)[C@H]3Cc4ccccc4CN3)CC2)CCCCC1 | 16 nM | 33 nM | 96%
18 | CC(C)COC(=O)N[C@H](Cc1ccc(Cl)cc1)C(=O)N1CCN(C2(CNC(=O)Cc3ccccc3)CCCCC2)CC1 | 280 nM | – | –
19 | CC(C)(C)CC(=O)N[C@H](Cc1ccc(Cl)cc1)C(=O)N1CCN(C2(CNC(=O)Cc3ccccc3)CCCCC2)CC1 | 750 nM | 570 nM | 43%
20 | O=C(Cc1ccccc1)NCC1(N2CCN(C(=O)[C@@H](Cc3ccc(Cl)cc3)NC(=O)[C@@H]3Cc4ccccc4CN3)CC2)CCCCC1 | 11 nM | 46 nM | 76%

Continued, values first:

Row | Ki [1] | EC50 [2] | Emax [2] | Structure (SMILES)
21 | 110 nM | – | – | CC(=O)N[C@H](Cc1ccc(Cl)cc1)C(=O)N1CCN(C2(CNC(=O)Cc3ccccc3)CCCCC2)CC1
22 | 210 nM | 360 nM | 22% | O=C(Cc1ccccc1)NCC1(N2CCN(C(=O)[C@@H](Cc3ccc(Cl)cc3)NC(=O)C3Cc4ccccc4N3)CC2)CCCCC1 (stereo partly specified)
23 | 79 nM | 530 nM | 26% | NC(C(=O)N[C@H](Cc1ccc(Cl)cc1)C(=O)N1CCN(C2(CNC(=O)Cc3ccccc3)CCCCC2)CC1)c1ccccc1 (stereo partly specified)
24 | 100 nM | – | – | O=C(Cc1ccccc1)NCC1(N2CCN(C(=O)[C@@H](Cc3ccc(Cl)cc3)NC(=O)c3ccco3)CC2)CCCCC1
25 | 140 nM | 280 nM | 49% | NC1(C(=O)N[C@H](Cc2ccc(Cl)cc2)C(=O)N2CCN(C3(CNC(=O)Cc4ccccc4)CCCCC3)CC2)Cc2ccccc2C1
26 | 84 nM | – | – | O=C(Cc1ccccc1)NCC1(N2CCN(C(=O)[C@@H](Cc3ccc(Cl)cc3)NC(=O)c3ccccc3)CC2)CCCCC1
27 | 130 nM | 420 nM | 62% | NC(Cc1ccccc1)C(=O)N[C@H](Cc1ccc(Cl)cc1)C(=O)N1CCN(C2(CNC(=O)Cc3ccccc3)CCCCC2)CC1 (stereo partly specified)
28 | 180 nM | – | – | O=C(Cc1ccccc1)NCC1(N2CCN(C(=O)[C@@H](Cc3ccc(Cl)cc3)NC(=O)Cc3ccccc3F)CC2)CCCCC1
29 | 300 nM | – | – | CC(C)C(=O)N[C@H](Cc1ccc(Cl)cc1)C(=O)N1CCN(C2(CNC(=O)Cc3ccccc3)CCCCC2)CC1
30 | 260 nM | 810 nM | 51% | NC1(C(=O)N[C@H](Cc2ccc(Cl)cc2)C(=O)N2CCN(C3(CNC(=O)Cc4ccccc4)CCCCC3)CC2)CCc2ccccc21 (stereo partly specified)
31 | 99 nM | 440 nM | 43% | O=C(Cc1ccccc1)NCC1(N2CCN(C(=O)[C@@H](Cc3ccc(Cl)cc3)NC(=O)C3NCc4ccccc43)CC2)CCCCC1 (stereo partly specified)
32 | 120 nM | 590 nM | 54% | NC(Cc1ccncc1)C(=O)N[C@H](Cc1ccc(Cl)cc1)C(=O)N1CCN(C2(CNC(=O)Cc3ccccc3)CCCCC2)CC1 (stereo partly specified)
33 | 42 nM | 270 nM | 61% | NC(CC(=O)N[C@H](Cc1ccc(Cl)cc1)C(=O)N1CCN(C2(CNC(=O)Cc3ccccc3)CCCCC2)CC1)c1ccccc1 (stereo partly specified)
